We go through 36 molecules from US20130287807A1, “COMPOUNDS FOR TREATING SYMPTOMS ASSOCIATED WITH PARKINSON'S DISEASE” (priority 2008, published 2013).

Bounds are passed on as bounds.

In test [1] the test system is Aβ/truncated/modified forms. The test is described as follows: In vivo characterisation of mimotopes: detection of Aβ/truncated/modified forms. Further details: species or system C57/B16 mice; key: +: All peptides listed in table 4 mount specific immune reactions against full length and/or truncated and modified forms of Aβ or fragments thereof. Particulars: Table 4, MV-002 derived mimotopes. How it is done:
Inhibiting as well as non-inhibiting peptides were coupled to KLH and injected into mice (wildtype C57/B16 mice; subcutaneous injection into the flank) together with an appropriate adjuvant (aluminium hydroxide). Animals were vaccinated 3-6 times in biweekly intervals and sera were taken biweekly as well. Titers to injected peptides, as well as to an irrelevant peptide were determined with every serum. Furthermore, titers against the recombinant human Aβ protein, and against original peptides were determined respectively. In general sera were analysed by reaction against peptides coupled to Bovine Serum Albumin (BSA) and recombinant full length proteins which were immobilised on ELISA plates. Titers were determined using anti mouse IgG specific antibodies. For detailed results see FIGS. 15, 16 and 17 respectively and FIGS. 23, 24 and 25 respectively.
(§1) Female C57/b16 mice, 5-6 mice per group, were subcutaneously immunized with 30 μg peptide coupled to KLH. Control groups were administered original epitope-KLH conjugates respectively. As adjuvant alum was used (always 1 mg per mouse). […] The in vitro ELISA assay to determine the antibody titer was performed with sera of single mice after each vaccination in a two week interval (see FIGS. 15 and 16 respectively). The wells of the ELISA plate were coated with mimotope-BSA conjugate and an irrelevant peptide-BSA conjugate (negative control). The positive control was performed by reaction of the parental antibody with the respective mimotope-BSA conjugate. The detection was performed with anti-mouse IgG. Additionally, recombinant proteins were immobilised on ELISA plates and sera reacted accordingly. FIGS. 15 to 17 show representative examples for assays used to characterise mimotopes in vivo.
as §1, with “FIGS. 25” for “FIGS. 15”, “and 26” for “and 16”, “respectively). Titers were calculated as OD max/2 in all figures shown.” for “respectively).”, “FIGS. 23, 24 and 25” for “FIGS. 15 to 17”

Test [2] relates to monoclonal antibody MV-002. The test is described as follows: In vitro binding assay (ELISA), BSA-coupled peptides, parental antibody MV-002. More on the design: species or system C57/B16 mice. Particulars: Table 1 (MV-002); peptide-BSA on plate, compared to original epitope. As to the method: (§2) Peptides derived from Phage Display as well as variants thereof were coupled to BSA and bound to ELISA plates (1 μM; as indicated in the respective figures) and subsequently incubated with the monoclonal antibody that was used for the screening procedure to analyse binding capacity of identified peptides.
Legend to Table 1: the binding capacity is coded by the following binding code: 1:X describes the dilution factor of the parental AB. Ac- . . . indicates acetylated AA.
In general terms: In an ELISA, binding on a coated surface is turned into a signal by an enzyme label.

Test [3] relates to monoclonal antibody MV-004. The test is described as follows: In vitro inhibition assay (ELISA), MV-004 binding to original epitope. Further details: species or system BalbC mice. Conditions: Table 2B; OD at 10 ug peptide compared to original peptide. As to the method: (§3) Different amounts of peptides (concentrations ranging from 10 μg to 0.08 μg; serial dilutions; for MV-002: concentrations ranging from 5 μg to 0.03 μg; serial dilutions), derived from Phage Display were incubated with the monoclonal antibody that was used for the screening procedure. Peptides diminishing subsequent binding of the antibody to the original epitope coated on ELISA plates were considered as inhibiting in this assay.
Legend to Table 2B: the inhibition capacity is coded by the following code: Weak inhibition means more peptide is required to lower AB binding than with the original epitope; strong inhibition means similar peptide amounts are required for mimotope and original epitope for lowering AB binding. Mimotopes are compared to the original peptide as standard. OD at 10 ug peptide used in the assay is used to calculate the competition capacity compared to original peptide.

Test [4] concerns monoclonal antibody MV-004. The test is described as follows: In vitro binding assay (ELISA), BSA-coupled peptides, parental antibody MV-004. More on the design: species or system BalbC mice. Particulars: Table 1B; peptide-BSA on plate, compared to original epitope. How it is done:
as §2
Legend to Table 1B: the binding capacity is coded by the following binding code: 1:X describes the dilution factor of the parental AB.

Test [5] deals with monoclonal antibody MV-002. The test is described as follows: In vitro inhibition assay (ELISA), MV-002 binding to original epitope. More on the design: species or system C57/B16 mice. Particulars: Table 2 (MV-002); OD at 5 ug peptide compared to original peptide. As to the method: as §3
Legend to Table 2: the inhibition capacity is coded by the following code: Weak inhibition means more peptide is required to lower AB binding than with the original epitope; strong inhibition means similar peptide amounts are required for mimotope and original epitope for lowering AB binding. Mimotopes are compared to the original peptide as standard. OD at 5 ug peptide used in the assay is used to calculate the competition capacity compared to original peptide.

Test [6] deals with monoclonal antibody MV-002. Briefly: ELISA on peptide-BSA; code 1 = weak binding, OD halfmax 1:<40000.
Test [7] concerns the target monoclonal antibody MV-001. The test is described as follows: ELISA on peptide-BSA; code 1 = weak binding, OD halfmax 1:<4000.

On to SGQIWFRC [p4414], for which the “Detection of Aβ/truncated/modified forms” value in test [1] is recorded as “+”. Moreover, the “Binding Capacity” value in test [2] was 1 (weak binding :<40000).

As for ERWHEKC [p4790], the “Inhibition Capacity” value in test [3] was 2 (strong inhibition (as original epitope; OD of 10 ug peptide below 2 times of original peptide)). In test [4], the “Binding Capacity” value is 1 (weak binding :<24000). SGEYVFHC [p4404]: in test [1], the “Detection of Aβ/truncated/modified forms” value was “+”. In test [2], the “Binding Capacity” value is listed as 1 (weak binding :<40000). For THQRLWFC [p4693] the same measures were “+” and 3 (strong binding :>320000). Take EVWHRHC [p4789]: the “Inhibition Capacity” value in test [3] is on record as 1 (Weaker than original epitope (OD of 10 ug peptide below 5 times of original peptide)). In test [4], the “Binding Capacity” value is 1 (weak binding :<24000). EVWHRGC [p4788]: in test [3], the “Inhibition Capacity” value is recorded as 1 (Weaker than original epitope (OD of 10 ug peptide below 5 times of original peptide)). For the same molecule, the “Binding Capacity” value in test [4] is given as 1 (weak binding :<24000). Consider SGQLKFPC [p4413], for which, in test [1], the “Detection of Aβ/truncated/modified forms” value is on record as “+”. Besides, in test [2], the “Binding Capacity” value is reported as 1 (weak binding :<40000). EVWHRLQC [p4419]: in test [3], the “Inhibition Capacity” value is 2 (strong inhibition (as original epitope; OD of 10 ug peptide below 2 times of original peptide)). In addition, the “Binding Capacity” value in test [4] is 3 (strong binding :>96000). Regarding GEIQFGAC [p4699], the “Detection of Aβ/truncated/modified forms” value in test [1] was “+”. For the same molecule, the “Inhibition Capacity” value in test [5] was 1 (Weaker than original epitope (OD of peptide below 4, 6 times of original peptide)). Besides, in test [2], the “Binding Capacity” value is 3 (strong binding :>320000). In the case of SGEIHFNC [p4415], the “Detection of Aβ/truncated/modified forms” value in test [1] is “+”. For the same molecule, in test [2], the “Binding Capacity” value is 1 (weak binding :<40000). With ELWHRAFC [p4665], the “Inhibition Capacity” value in test [3] was 2 (strong inhibition (as original epitope; OD of 10 ug peptide below 2 times of original peptide)). The “Binding Capacity” value in test [4] was 2 (medium binding :24-96000). As to GELWFPC [p4673], the “Detection of Aβ/truncated/modified forms” value in test [1] is on record as “+”. Besides, the “Inhibition Capacity” value in test [5] is listed as 1 (Weaker than original epitope (OD of peptide below 4, 6 times of original peptide)). In addition, the “Binding Capacity” value in test [2] is given as 3 (strong binding :>320000).

For ELWHRYPC [p4420], the “Inhibition Capacity” value in test [3] is 1 (Weaker than original epitope (OD of 10 ug peptide below 5 times of original peptide)). Further, in test [4], the “Binding Capacity” value was 2 (medium binding :24-96000). EVWHRHQC [p4417]: the “Inhibition Capacity” value in test [3] is given as 1 (Weaker than original epitope (OD of 10 ug peptide below 5 times of original peptide)). Also, in test [4], the “Binding Capacity” value is on record as 2 (medium binding :24-96000). For ELWHRAC [p4786] the same measures were 1 (Weaker than original epitope (OD of 10 ug peptide below 5 times of original peptide)) and 1 (weak binding :<24000). GEIRFGSC [p4696]: in test [1], the “Detection of Aβ/truncated/modified forms” value is given as “+”. Moreover, in test [2], the “Binding Capacity” value is listed as 3 (strong binding :>320000).

On to GEIKFDHC [p4698], for which the “Detection of Aβ/truncated/modified forms” value in test [1] is on record as “+”. In addition, the “Inhibition Capacity” value in test [5] is 2 (strong inhibition (as original epitope; OD of peptide below 2, 3 times of original peptide)). The “Binding Capacity” value in test [2] is 3 (strong binding :>320000). As to ERWHEKHC [p4418], the “Inhibition Capacity” value in test [3] is listed as 2 (strong inhibition (as original epitope; OD of 10 ug peptide below 2 times of original peptide)). Further, the “Binding Capacity” value in test [4] was 3 (strong binding :>96000).

B1: p4806 (peptide)
peptide: AGEIYFERC
Consider B1, for which, in test [6], the OD halfmax dilution factor of the parental antibody (1:X) (dilutionfactor(1:x)) is under 40000.

B2: p4666 (peptide)
peptide: GQIWFISC
Consider B2, for which the OD halfmax dilution factor of the parental antibody (1:X) (dilutionfactor(1:x)) in test [6] was under 40000.

B3: p4682 (peptide)
peptide: AIPLFVMC
B3: the OD halfmax dilution factor of the parental antibody (1:X) (dilutionfactor(1:x)) in test [6] was under 40000.

B4: p4733 (peptide)
peptide: TPLMFWHC
Turning to B4, the OD halfmax 1:X (dilution factor of the parental antibody at half-maximal OD) (dilutionfactor(1:x)) in test [7] was under 4000.

B5: p4709 (peptide)
peptide: EDWFFWHC
Take B5: in test [7], the OD halfmax 1:X (dilution factor of the parental antibody at half-maximal OD) (dilutionfactor(1:x)) was under 4000.

B6: p4403 (peptide)
peptide: SHTRLYFC
B6: the OD halfmax dilution factor of the parental antibody (1:X) (dilutionfactor(1:x)) in test [6] is under 40000.

B7: p4691 (peptide)
peptide: KLPLFVMC
Take B7: the OD halfmax dilution factor of the parental antibody (1:X) (dilutionfactor(1:x)) in test [6] is under 40000.

B8: p4415 (peptide)
peptide: SGEIHFNC
On to B8, for which, in test [6], the OD halfmax dilution factor of the parental antibody (1:X) (dilutionfactor(1:x)) was under 40000.

B9: p4805 (peptide)
peptide: SGEIYFERC
Consider B9, for which the OD halfmax dilution factor of the parental antibody (1:X) (dilutionfactor(1:x)) in test [6] is under 40000.

B10: p4700 (peptide)
peptide: QLPLFVLC
Turning to B10, the OD halfmax dilution factor of the parental antibody (1:X) (dilutionfactor(1:x)) in test [6] is under 40000.

B11: p4719 (peptide)
peptide: HEPLFSHC
Take B11: in test [7], the OD halfmax 1:X (dilution factor of the parental antibody at half-maximal OD) (dilutionfactor(1:x)) was under 4000.

B12: p4692 (peptide)
peptide: GTIFFRDC
Regarding B12, in test [6], the OD halfmax dilution factor of the parental antibody (1:X) (dilutionfactor(1:x)) is under 40000.

B13: p4713 (peptide)
peptide: QPNLFYHC
In the case of B13, the OD halfmax 1:X (dilution factor of the parental antibody at half-maximal OD) (dilutionfactor(1:x)) in test [7] was under 4000.

B14: p4404 (peptide)
peptide: SGEYVFHC
For the molecule B14, in test [6], the OD halfmax dilution factor of the parental antibody (1:X) (dilutionfactor(1:x)) was under 40000.

B15: p4724 (peptide)
peptide: QELKRYYC
Take B15: the OD halfmax 1:X (dilution factor of the parental antibody at half-maximal OD) (dilutionfactor(1:x)) in test [7] is under 4000.

B16: p4414 (peptide)
peptide: SGQIWFRC
Consider B16, for which, in test [6], the OD halfmax dilution factor of the parental antibody (1:X) (dilutionfactor(1:x)) was under 40000.

B17: p4413 (peptide)
peptide: SGQLKFPC
Take B17: the OD halfmax dilution factor of the parental antibody (1:X) (dilutionfactor(1:x)) in test [6] was under 40000.

B18: p4807 (peptide)
peptide: CGEIYFER
On to B18, for which, in test [6], the OD halfmax dilution factor of the parental antibody (1:X) (dilutionfactor(1:x)) was under 40000.
